Data published in patent publication US7214395B2, “Pharmaceutical and cosmetic composition against skin aging” (Indena S.p.A., priority 2001, dated 2007).

System: fibroblasts
Assay: collagen metabolism / amino acid up-take by fibroblasts
Type: cell-based
Text: […]. An improved synthesis of collagen means a faster substitution of the degraded old fibers of collagen with the new ones.

Compound	activity on collagen metabolism	capability of the fibroblasts to up-take amino acids such as L-Proline and L-Hydroxyproline
C[C@H]1[C@H](C)CC[C@]2(C(=O)O)CC[C@]3(C)C(=CC[C@@H]4[C@@]5(C)C[C@@H](O)[C@H](O)[C@@](C)(CO)[C@@H]5CC[C@]43C)[C@H]12 [asiatic acid]	strong activity	improve
C[C@H]1[C@H](C)CC[C@]2(C(=O)O)CC[C@]3(C)C(=CC[C@@H]4[C@@]5(C)C[C@@H](O)[C@H](O)[C@@](C)(CO)[C@@H]5[C@H](O)C[C@]43C)[C@H]12 [madecassic acid]	strong activity	improve
